Experimental data taken from patent publication US9416125B2, “Substituted cycloalkenopyrazoles as BUB1 inhibitors for the treatment of cancer” (BAYER PHARMA AKTIENGESELLSCHAFT, priority 2012, dated 2016).

Experiments:
HeLa cell line = experiment: Proliferation assay (crystal violet staining); assay type: cell-based; conditions: Homo sapiens, 96 h, 4 days incubation, range 0.001-10 μM, median, read-out: Biological Assay 2: Proliferation assay (HeLa cell line) median IC50
Protocol: Cultivated tumor cells (cells were ordered from ATCC, except HeLa-MaTu and HeLa-MaTu-ADR, which were ordered from EPO-GmbH, Berlin) were plated at a density of 1000 to 5000 cells/well, depending on the growth rate of the respective cell line, in a 96-well multititer plate in 200 μL of their respective growth medium supplemented 10% fetal calf serum. After 24 h, the cells of one plate (zero-point plate) were stained with crystal violet (see below), while the medium of the other plates was replaced by fresh culture medium (200 μL), to which the test substances were added in various concentrations (0 μM, as well as in the range of 0.001-10 μM; the final concentration of the solvent DMSO was 0.5%). The cells were incubated for 4 days in the presence of test substances. Cell proliferation was determined by staining the cells with crystal violet: the cells were fixed by adding 20 μL/measuring point of an 11% glutaric aldehyde solution for 15 min at rt. After three washing cycles of the fixed cells with water, the plates were dried at rt. The cells were stained by adding 100 μL/measuring point of a 0.1% crystal violet solution (pH 3.0). After three washing cycles of the stained cells with water, the plates were dried at rt. The dye was dissolved by adding 100 μL/measuring point of a 10% acetic acid solution. Absorbtion was determined by photometry at a wavelength of 595 nm. The change of cell number, in percent, was calculated by normalization of the measured values to the aborbtion values of the zero-point plate (=0%) and the absorbtion of the untreated (0 μm) cells (=100%). The IC50 values were determined by means of a 4 parameter fit.

[1] = target: T1, catalytic domain of human Bub1 (amino acids 704-1085) (Homo sapiens, UniProt O43683); experiment: Bub1 kinase assay (TR-FRET); assay type: biochemical; conditions: 10 μM ATP, 1 μM peptide substrate, median, read-out: Biological Assay 1: Bub1 kinase assay median IC50
T1 construct: catalytic domain of human Bub1 (amino acids 704-1085); His6 (N); made in house; host or cells: Hi5 insect cells
Text: Bub1-inhibitory activities of compounds described in the present invention were quantified using a time-resolved fluorescence energy transfer (TR-FRET) kinase assay which measures phosphorylation of the synthetic peptide Biotin-Ahx-VLLPKKSFAEPG (C-terminus in amide form), purchased from e.g. Biosyntan (Berlin, Germany) by the (recombinant) catalytic domain of human Bub1 (amino acids 704-1085), expressed in Hi5 insect cells with an N-terminal His6-tag and purified by affinity- (Ni-NTA) and size exclusion chromatography.
In a typical assay 11 different concentrations of each compound (0.1 nM, 0.33 nM, 1.1 nM, 3.8 nM, 13 nM, 44 nM, 0.15 μM, 0.51 μM, 1.7 μM, 5.9 μM and 20 μM) were tested in duplicate within the same microtiter plate. To this end, 100-fold concentrated compound solutions (in DMSO) were previously prepared by serial dilution (1:3.4) of 2 mM stocks in a clear low volume 384-well source microtiter plate (Greiner Bio-One, Frickenhausen, Germany), from which 50 nL of compounds were transferred into a black low volume test microtiter plate from the same supplier. Subsequently, 2 μL of Bub1 (the final concentration of Bub1 was adjusted depending on the activity of the enzyme lot in order to be within the linear dynamic range of the assay: typically ˜200 ng/mL were used) in aqueous assay buffer [50 mM Tris/HCl pH 7.5, 10 mM magnesium chloride (MgCl2), 200 mM potassium chloride (KCl), 1.0 mM dithiothreitol (DTT), 0.1 mM sodium ortho-vanadate, 1% (v/v) glycerol, 0.01% (w/v) bovine serum albumine (BSA), 0.005% (v/v) Trition X-100 (Sigma), 1× Complete EDTA-free protease inhibitor mixture (Roche)] were added to the compounds in the test plate and the mixture was incubated for 15 min at 22° C. to allow pre-equilibration of the putative enzyme-inhibitor complexes before the start of the kinase reaction, which was initiated by the addition of 3 μL 1.67-fold concentrated solution (in assay buffer) of adenosine-tri-phosphate (ATP, 10 μM final concentration) and peptide substrate (1 μM final concentration). The resulting mixture (5 μL final volume) was incubated at 22° C. during 60 min, and the reaction was stopped by the addition of 5 μL of an aqueous EDTA-solution (50 mM EDTA, in 100 mM HEPES pH 7.5 and 0.2% (w/v) bovine serum albumin) which also contained the TR-FRET detection reagents (0.2 μM streptavidin-XL665 [Cisbio Bioassays, Codolet, France] and 1 nM anti-phosho-Serine antibody [Merck Millipore, cat. #35-001] and 0.4 nM LANCE EU-W1024 labeled anti-mouse IgG antibody [Perkin-Elmer, product no. AD0077, alternatively a Terbium-cryptate-labeled anti-mouse IgG antibody from Cisbio Bioassays can be used]). The stopped reaction mixture was further incubated 1 h at 22° C. in order to allow the formation of complexes between peptides and detection reagents. Subsequently, the amount of product was evaluated by measurement of the resonance energy transfer from the Eu-chelate-antibody complex recognizing the Phosphoserine residue to the streptavidin-XL665 bound to the biotin moiety of the peptide. To this end, the fluorescence emissions at 620 nm and 665 nm after excitation at 330-350 nm were measured in GTR-FRET plate reader, e.g. a Rubystar or Pherastar (both from BMG Labtechnologies, Offenburg, Germany) or a Viewlux (Perkin-Elmer) and the ratio of the emissions (665 nm/622 nm) was taken as indicator for the amount of phosphorylated substrate. The data were normalised using two sets of (typically 32-) control wells for high- (=enzyme reaction without inhibitor=0%=Minimum inhibition) and low- (=all assay components without enzyme=100%=Maximum inhibition) Bub1 activity. IC50 values were calculated by fitting the normalized inhibition data to a 4-parameter logistic equation (Minimum, Maximum, IC50, Hill; Y=Max+(Min−Max)/(1+(X/IC50)Hill)).

T1 sequence (O43683 704-1085): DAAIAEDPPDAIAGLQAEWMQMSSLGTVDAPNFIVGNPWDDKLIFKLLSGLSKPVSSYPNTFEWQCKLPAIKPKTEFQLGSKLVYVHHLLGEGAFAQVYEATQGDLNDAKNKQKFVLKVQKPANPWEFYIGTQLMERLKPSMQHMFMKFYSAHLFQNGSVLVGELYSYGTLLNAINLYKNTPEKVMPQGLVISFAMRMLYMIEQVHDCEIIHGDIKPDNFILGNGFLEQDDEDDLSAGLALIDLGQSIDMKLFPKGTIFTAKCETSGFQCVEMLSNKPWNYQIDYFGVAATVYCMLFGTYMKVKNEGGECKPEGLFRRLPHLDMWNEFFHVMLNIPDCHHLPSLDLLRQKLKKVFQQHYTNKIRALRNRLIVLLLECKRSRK

## N#Cc1cnccc1Nc1nc(-c2nn(Cc3ccccc3F)c3c2CCC3)ncc1O [Example 2-2-2, 4-({2-[1-(2-fluoro-benzyl)-1,4,5,6-tetrahydrocyclopenta [c]pyrazol-3-yl]-5-hydroxy-pyrimidin-4-yl}amino) nicotinonitrile]
HeLa cell line
  IC50: 6000 nM
[1]
  IC50: 70 nM

## COc1c(N)nc(-c2nn(Cc3ccccc3F)c3c2CCC3)nc1Nc1ccncc1 [Example 2-1-4, 2-[1-(2-fluoro-benzyl)-1,4,5,6-tetrahydrocyclopenta [c]pyrazol-3-yl]-5-methoxy-N-(pyridin-4-yl)pyrimidin-4,6-diamine]
HeLa cell line
  IC50: ≥ 10000 nM
[1]
  IC50: 90 nM

## CCOc1cc(F)c(Cn2nc(-c3ncc(OCC4(CO)COC4)c(Nc4ccncc4)n3)c3c2CCC3)c(F)c1 [Example 2-3-2, {3-[({2-[1-(4-ethoxy-2,6-difluoro-benzyl)-1,4,5,6-tetrahydrocyclopenta [c]pyrazol-3-yl]-4-(pyridin-4-ylamino)pyrimidin-5-yl}oxy)methyl]oxetan-3-yl}methanol]
HeLa cell line
  IC50: ≥ 10000 nM
[1]
  IC50: 6 nM

## COc1cnc(-c2nn(Cc3ccccc3F)c3c2CCC3)nc1Nc1ccncc1 [Example 2-1-6, 2-[1-(2-fluoro-benzyl)-1,4,5,6-tetrahydrocyclopenta [c]pyrazol-3-yl]-5-methoxy-N-(pyridin-4-yl)pyrimidin-4-amine]
HeLa cell line
  IC50: ≥ 10000 nM
[1]
  IC50: 100 nM

## CCOc1cc(F)c(Cn2nc(-c3ncc(O)c(N(CCN(C)C)c4ccncc4)n3)c3c2CCC3)c(F)c1 [Example 2-4-1, 4-{[2-(dimethylamino)ethyl](pyridin-4-yl)amino}-2-[1-(4-ethoxy-2,6-difluorobenzyl)-1,4,5,6-tetrahydrocyclopenta[c]pyrazol-3-yl]pyrimidin-5-ol]
HeLa cell line
  IC50: ≥ 10000 nM
[1]
  IC50: 200 nM

## NC(=O)c1cnccc1Nc1nc(-c2nn(Cc3ccccc3F)c3c2CCC3)ncc1OCCO [Example 2-10-1, 4-({2-[1-(2-fluorobenzyl)-1,4,5,6-tetrahydrocyclopenta[c]pyrazol-3-yl]-5-(2-hydroxyethoxyl)pyrimidin-4-yl}amino)nicotinamide]
HeLa cell line
  IC50: 50000 nM
[1]
  IC50: 70 nM

## N#Cc1cnccc1Nc1nc(-c2nn(Cc3ccccc3F)c3c2CCC3)ncc1OCCO [Example 2-11-1, 4-({2-[1-(2-fluorobenzyl)-1,4,5,6-tetrahydrocyclopenta[c]pyrazol-3-yl]-5-(2-hydroxyethoxyl)pyrimidin-4-yl}amino)nicotinonitrile]
HeLa cell line
  IC50: ≥ 10000 nM
[1]
  IC50: 400 nM

## COCC(=O)Nc1nc(-c2nn(Cc3ccccc3F)c3c2CCC3)nc(Nc2ccncc2)c1OC [Example 2-1-10, N-{2-[1-(2-fluorobenzyl)-1,4,5,6-tetrahydrocyclopenta[c]pyrazol-3-yl]-5-methoxy-6-(pyridin-4-ylamino)pyrimidin-4-yl}-2-methoxyacetamide]
HeLa cell line
  IC50: ≥ 10000 nM
[1]
  IC50: 300 nM

## CCOc1cc(F)c(Cn2nc(-c3ncc(OCCO)c(Nc4ccncc4)n3)c3c2CCC3)c(F)c1 [Example 2-11-2, 2-({2-[1-(4-ethoxy-2,6-difluoro-benzyl)-1,4,5,6-tetrahydrocyclopenta [c]pyrazol-3-yl]-4-(pyridin-4-ylamino)pyrimidin-5-yl}oxy) ethanol]
HeLa cell line
  IC50: 4000 nM
[1]
  IC50: 4 nM

## CCOc1cc(F)c(Cn2nc(-c3ncc(OC)c(Nc4ccncc4)n3)c3c2CCC3)c(F)c1 [Example 2-1-1, 2-[1-(4-ethoxy-2,6-difluorobenzyl)-1,4,5,6-tetrahydrocyclopenta-[c]pyrazol-3-yl]-5-methoxy-N-(pyridin-4-yl)pyrimidin-4-amine]
HeLa cell line
  IC50: 6000 nM
[1]
  IC50: 5 nM

## CCOc1cc(F)c(Cn2nc(-c3ncc(O)c(N(CCN4CCCC4)c4ccncc4)n3)c3c2CCC3)c(F)c1 [Example 2-4-2, 2-[1-(4-ethoxy-2,6-difluoro-benzyl)-1,4,5,6-tetrahydrocyclopenta [c]pyrazol-3-yl]-4-{pyridin-4-yl[2-(pyrrolidin-1-yl)ethyl]amino} pyrimidin-5-ol]
HeLa cell line
  IC50: ≥ 10000 nM
[1]
  IC50: 900 nM

## CCOc1cc(F)c(Cn2nc(-c3ncc(OCCN4CCCC4)c(Nc4ccncc4)n3)c3c2CCC3)c(F)c1 [Example 2-3-3, 2-[1-(4-ethoxy-2,6-difluoro-benzyl)-1,4,5,6-tetrahydrocyclopenta [c]pyrazol-3-yl]-N-(pyridin-4-yl)-5-[2-(pyrrolidin-1-yl)ethoxy] pyrimidin-4-amine]
HeLa cell line
  IC50: 1000 nM
[1]
  IC50: 20 nM

## CCOc1cc(F)c(Cn2nc(-c3ncc(OCCN(C)C)c(Nc4ccncc4)n3)c3c2CCC3)c(F)c1 [Example 2-3-1, 5-[2-(dimethylamino)ethoxy]-2-[1-(4-ethoxy-2,6-difluorobenzyl)-1,4,5,6-tetrahydrocyclopenta[c]pyrazol-3-yl]-N-(pyridin-4-yl)pyrimidin-4-amine]
HeLa cell line
  IC50: 1000 nM
[1]
  IC50: 9 nM

## Oc1cnc(-c2nn(Cc3ccccc3F)c3c2CCC3)nc1Nc1ccncc1 [Example 2-1-13, 2-[1-(2-fluoro-benzyl)-1,4,5,6-tetrahydrocyclopenta [c]pyrazol-3-yl]-4-(pyridin-4-ylamino) pyrimidin-5-ol]
HeLa cell line
  IC50: ≥ 10000 nM
[1]
  IC50: 300 nM

## CS(=O)(=O)CCOc1cnc(-c2nn(Cc3ccccc3F)c3c2CCC3)nc1Nc1ccncc1C(N)=O [Example 2-13-1, 4-({2-[1-(2-fluorobenzyl)-1,4,5,6-tetrahydrocyclopenta[c]pyrazol-3-yl]-5-[2-(methylsulfonyl)ethoxy]pyrimidin-4-yl}amino)nicotinamide]
HeLa cell line
  IC50: ≥ 10000 nM
[1]
  IC50: 30 nM

## COc1cnc(-c2nn(Cc3ccccc3F)c3c2CCC3)nc1Nc1ccncc1C(N)=O [Example 2-5-1, 4-({2-[1-(2-fluorobenzyl)-1,4,5,6-tetrahydrocyclopenta[c]pyrazol-3-yl]-5-methoxypyrimidin-4-yl}amino)nicotinamide]
HeLa cell line
  IC50: ≥ 10000 nM
[1]
  IC50: 10 nM

## COc1cnc(-c2nn(Cc3ccccc3F)c3c2CCCC3)nc1Nc1ccncc1 [Example 2-1-2, 2-[1-(2-fluoro-benzyl)-4,5,6,7-tetrahydro-1H-indazol-3-yl]-5-methoxy-N-(pyridin-4-yl)pyrimidin-4-amine]
HeLa cell line
  IC50: ≥ 10000 nM
[1]
  IC50: 10 nM
